Like-named read-outs stand apart in the source and are kept apart here.
Target: T1, Human GO (Homo sapiens, UniProt Q9UJM8)
T1 construct: purchased Novus Biologicals NBP1-72412
T1 sequence (Q9UJM8 1-370): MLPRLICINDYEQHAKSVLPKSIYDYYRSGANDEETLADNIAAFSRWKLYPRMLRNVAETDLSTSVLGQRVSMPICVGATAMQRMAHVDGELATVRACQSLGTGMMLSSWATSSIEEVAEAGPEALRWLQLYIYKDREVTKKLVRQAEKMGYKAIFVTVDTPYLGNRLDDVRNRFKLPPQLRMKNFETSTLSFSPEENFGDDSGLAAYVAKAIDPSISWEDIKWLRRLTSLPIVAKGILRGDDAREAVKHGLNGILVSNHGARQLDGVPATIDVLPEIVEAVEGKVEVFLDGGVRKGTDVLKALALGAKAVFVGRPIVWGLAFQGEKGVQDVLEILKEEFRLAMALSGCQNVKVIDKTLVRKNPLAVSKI
Experiment: GO enzymatic assay (coupled fluorescence/HRP assay, glycolate substrate)
Type: biochemical
Protocol: Assay 1: GO Enzymatic Assay
GO was incubated with its substrate, glycolate, in 50 mM potassium phosphate buffer, pH 7. […] The enzyme was optimized and the kinetics was determined.
Compound inhibition was determined by adding various concentrations of inhibitors in the GO enzyme assay. The IC50 value for each measured compound was generated from sigmoidal dose-response (variable slope) curves with GraphPad Prism software (GraphPad Software, Inc., San Diego, Calif.) using the percent inhibition of GO activity relative to DMSO control.

[1] = Table 1, read-out: Range (range of IC50 values calculated from the enzymatic assays)

## O=C(O)c1[nH]nnc1Sc1ccc(-c2ccc(OC(F)(F)F)c(Cl)c2)cc1 [Compound 32, 4-((3′-chloro-4′-(trifluoromethoxy)-[1,1′-biphenyl]-4-yl)thio)-1H-1,2,3-triazole-5-carboxylic acid]
[1]
  IC50: < 0.1 µM

## COC(=O)c1[nH]nnc1Sc1ccc(-c2ccc(OC(F)(F)F)cc2)cc1 [Compound 33, methyl 4-((4′-(trifluoromethoxy)-[1,1′-biphenyl]-4-yl)thio)-1H-1,2,3-triazole-5-carboxylate]
[1]
  IC50: > 10 µM

## CCCCOc1ccc2sc(Sc3nn[nH]c3C(=O)O)nc2c1 [Compound 34, 4-((5-butoxybenzo[d]thiazol-2-yl)thio)-1H-1,2,3-triazole-5-carboxylic acid]
[1]
  IC50: 0.1 to 1 µM

## Cn1c(Sc2nn[nH]c2C(=O)O)cnc1-c1ccc(Cl)c(Cl)c1 [Compound 35, 4-((2-(3,4-dichlorophenyl)-1-methyl-1H-imidazol-5-yl)thio)-1H-1,2,3-triazole-5-carboxylic acid 2,2,2-trifluoroacetate]
[1]
  IC50: 0.1 to 1 µM

## O=C(O)c1[nH]nnc1Sc1csc(-c2ccc(Cl)c(Cl)c2)c1 [Compound 36, 4-((5-(3,4-dichlorophenyl)thiophen-3-yl)thio)-1H-1,2,3-triazole-5-carboxylic acid]
[1]
  IC50: < 0.1 µM

## CN(C)CCOC(=O)c1[nH]nnc1Sc1ccc(-c2ccc(OC(F)(F)F)cc2)cc1 [Compound 37, 2-(dimethylamino)ethyl 4-((4′-(trifluoromethoxy)-[1,1′-biphenyl]-4-yl)thio)-1H-1,2,3-triazole-5-carboxylate]
[1]
  IC50: > 10 µM

## O=C(O)c1[nH]nnc1Sc1csc(-c2ccc(OC(F)(F)F)c(Cl)c2)n1 [Compound 39, 4-((2-(3-chloro-4-(trifluoromethoxy)phenyl)thiazol-4-yl)thio)-1H-1,2,3-triazole-5-carboxylic acid]
[1]
  IC50: < 0.1 µM

## COC(=O)c1[nH]nnc1Sc1csc(-c2ccc(OC(F)(F)F)c(Cl)c2)n1 [Compound 40, methyl 4-((2-(3-chloro-4-(trifluoromethoxy)phenyl)thiazol-4-yl)thio)-1H-1,2,3-triazole-5-carboxylate]
[1]
  IC50: > 10 µM

## O=C(O)c1[nH]nnc1Sc1ccc(Cl)c(Cl)c1 [Compound 41, 4-((3,4-dichlorophenyl)thio)-1H-1,2,3-triazole-5-carboxylic acid]
  IC50: < 0.1 µM

## O=C(O)c1[nH]nnc1Sc1cccc(-c2ccc(OC(F)(F)F)cc2)c1 [Compound 42, 4-((4′-(trifluoromethoxy)-[1,1′-biphenyl]-3-yl)thio)-1H-1,2,3-triazole-5-carboxylic acid]
[1]
  IC50: < 0.1 µM

## O=C(O)c1[nH]nnc1Sc1nc(-c2ccc(OC(F)(F)F)c(Cl)c2)cs1 [Compound 43, 4-((4-(3-chloro-4-(trifluoromethoxy)phenyl)thiazol-2-yl)thio)-1H-1,2,3-triazole-5-carboxylic acid]
[1]
  IC50: < 0.1 µM

## COC(=O)c1[nH]nnc1Sc1nc(-c2ccc(OC(F)(F)F)c(Cl)c2)cs1 [Compound 44, methyl 4-((4-(3-chloro-4-(trifluoromethoxy)phenyl)thiazol-2-yl)thio)-1H-1,2,3-triazole-5-carboxylate]
[1]
  IC50: > 10 µM

## O=C(OC1COC1)c1[nH]nnc1Sc1ccc(-c2ccc(OC(F)(F)F)cc2)cc1 [Compound 45, oxetan-3-yl 4-((4′-(trifluoromethoxy)-[1,1′-biphenyl]-4-yl)thio)-1H-1,2,3-triazole-5-carboxylate]
[1]
  IC50: 1 to 10 µM

## O=C(O)c1[nH]nnc1Sc1ccc2cc(Cl)ccc2n1 [Compound 46, 4-((6-chloroquinolin-2-yl)thio)-1H-1,2,3-triazole-5-carboxylic acid]
[1]
  IC50: 0.1 to 1 µM

## O=C(O)c1[nH]nnc1Sc1ccc(-c2ccc(Cl)cc2)c(Cl)c1 [Compound 47, 4-((2,4′-dichloro-[1,1′-biphenyl]-4-yl)thio)-1H-1,2,3-triazole-5-carboxylic acid]
[1]
  IC50: < 0.1 µM

## O=C(O)c1[nH]nnc1Sc1ccc(-c2ccc(Cl)cc2)cc1Cl [Compound 48, 4-((3,4′-dichloro-[1,1′-biphenyl]-4-yl)thio)-1H-1,2,3-triazole-5-carboxylic acid]
[1]
  IC50: < 0.1 µM

## O=C(O)c1[nH]nnc1Sc1ccc(F)c(F)c1 [Compound 49, 4-((3,4-difluorophenyl)thio)-1H-1,2,3-triazole-5-carboxylic acid]
[1]
  IC50: < 0.1 µM

## O=C(O)c1[nH]nnc1Sc1ccc2c(c1)CCCC2 [Compound 50, 4-((5,6,7,8-tetrahydronaphthalen-2-yl)thio)-1H-1,2,3-triazole-5-carboxylic acid]
[1]
  IC50: < 0.1 µM

## CC(C)(C)C(=O)OCn1nnc(Sc2ccc(-c3ccc(OC(F)(F)F)cc3)cc2)c1C(=O)O [Compound 51, 1-((pivaloyloxy)methyl)-4-((4′-(trifluoromethoxy)-[1,1′-biphenyl]-4-yl)thio)-1H-1,2,3-triazole-5-carboxylic acid]
[1]
  IC50: 0.1 to 1 µM

## CC(C)C(=O)OCn1nnc(Sc2ccc(-c3ccc(OC(F)(F)F)cc3)cc2)c1C(=O)O [Compound 52, 1-((isobutyryloxy)methyl)-4-((4′-(trifluoromethoxy)-[1,1′-biphenyl]-4-yl)thio)-1H-1,2,3-triazole-5-carboxylic acid]
[1]
  IC50: 0.1 to 1 µM

## O=C(O)c1[nH]nnc1Sc1ccc2ncsc2c1 [Compound 53, 4-(benzo[d]thiazol-6-ylthio)-1H-1,2,3-triazole-5-carboxylic acid 2,2,2-trifluoroacetate]
[1]
  IC50: < 0.1 µM

## CC(C)(C)C(=O)OCOC(=O)c1[nH]nnc1Sc1ccc(-c2ccc(OC(F)(F)F)cc2)cc1 [Compound 54, (pivaloyloxy)methyl 4-((4′-(trifluoromethoxy)-[1,1′-biphenyl]-4-yl)thio)-1H-1,2,3-triazole-5-carboxylate]
[1]
  IC50: 1 to 10 µM

## CC(C)C(=O)OCOC(=O)c1[nH]nnc1Sc1ccc(-c2ccc(OC(F)(F)F)cc2)cc1 [Compound 55, (isobutyryloxy)methyl 4-((4′-(trifluoromethoxy)-[1,1′-biphenyl]-4-yl)thio)-1H-1,2,3-triazole-5-carboxylate]
[1]
  IC50: 0.1 to 1 µM

## O=C(O)c1[nH]nnc1Sc1ccc2cc(Cl)ccc2c1 [Compound 56, 4-((6-chloronaphthalen-2-yl)thio)-1H-1,2,3-triazole-5-carboxylic acid]
[1]
  IC50: < 0.1 µM

## O=C(O)c1[nH]nnc1SC1Cc2cc(Cl)c(Cl)cc2C1 [Compound 57, 4-((5,6-dichloro-2,3-dihydro-1H-inden-2-yl)thio)-1H-1,2,3-triazole-5-carboxylic 2,2,2-trifluoroacetate]
[1]
  IC50: < 0.1 µM

## CCOC(=O)c1[nH]nnc1Nc1ccc(-c2ccc(Cl)cc2)cc1 [Compound 58-1, ethyl 4-((4′-chloro-[1,1′-biphenyl]-4-yl)amino)-1H-1,2,3-triazole-5-carboxylate]
[1]
  IC50: > 10 µM

## O=C(O)c1[nH]nnc1Nc1ccc(-c2ccc(Cl)cc2)cc1 [Compound 58-2, 4-((4′-chloro-[1,1′-biphenyl]-4-yl)amino)-1H-1,2,3-triazole-5-carboxylic acid]
[1]
  IC50: < 0.1 µM

## O=C(O)c1[nH]nnc1Nc1nc(-c2ccc(Cl)c(Cl)c2)cs1 [Compound 59, 4-((4-(3,4-dichlorophenyl)thiazol-2-yl)amino)-1H-1,2,3-triazole-5-carboxylic acid]
[1]
  IC50: < 0.1 µM

## O=C(O)c1[nH]nnc1Nc1ccc(-c2ccc(Cl)c(Cl)c2)cc1 [Compound 60, 4-((3′,4′-dichloro-[1,1′-biphenyl]-4-yl)amino)-1H-1,2,3-triazole-5-carboxylic acid]
[1]
  IC50: < 0.1 µM

## O=C(O)c1[nH]nnc1Nc1csc(-c2ccc(Cl)c(Cl)c2)n1 [Compound 61, ammonium 4-((2-(3,4-dichlorophenyl)thiazol-4-yl)amino)-1H-1,2,3-triazole-5-carboxylate]
[1]
  IC50: < 0.1 µM

## O=C(O)c1[nH]nnc1Nc1ccc(-c2ccc(OC(F)(F)F)cc2)cc1 [Compound 62, 4-((4′-(trifluoromethoxy)-[1,1′-biphenyl]-4-yl)amino)-1H-1,2,3-triazole-5-carboxylic acid 2,2,2-trifluoroacetate]
[1]
  IC50: < 0.1 µM

## CN(c1csc(-c2ccc(Cl)c(Cl)c2)n1)c1nn[nH]c1C(=O)O [Compound 63, 4-((2-(3,4-dichlorophenyl)thiazol-4-yl)(methyl)amino)-1H-1,2,3-triazole-5-carboxylic acid]
[1]
  IC50: 0.1 to 1 µM

## O=C(O)c1[nH]nnc1Nc1nc(-c2ccc(OC(F)(F)F)c(Cl)c2)cs1 [Compound 64, 4-((4-(3-chloro-4-(trifluoromethoxy)phenyl)thiazol-2-yl)amino)-1H-1,2,3-triazole-5-carboxylic acid]
[1]
  IC50: < 0.1 µM

## COC(=O)c1[nH]nnc1Nc1ccc(-c2ccc(OC(F)(F)F)cc2)cc1 [Compound 65, methyl 4-((4′-(trifluoromethoxy)-[1,1′-biphenyl]-4-yl)amino)-1H-1,2,3-triazole-5-carboxylate]
[1]
  IC50: > 10 µM

## O=C(O)CN(c1ccc(-c2ccc(Cl)cc2)cc1)c1nn[nH]c1C(=O)O [Compound 66, 4-((carboxymethyl)(4′-chloro-[1,1′-biphenyl]-4-yl)amino)-1H-1,2,3-triazole-5-carboxylic acid 2,2,2-trifluoroacetate]
[1]
  IC50: 1 to 10 µM

## O=C(O)c1[nH]nnc1NCc1cccc(-c2ccc(Cl)c(Cl)c2)c1 [Compound 67, 4-(((3′,4′-dichloro-[1,1′-biphenyl]-3-yl)methyl)amino)-1H-1,2,3-triazole-5-carboxylic acid]
[1]
  IC50: 0.1 to 1 µM

Source: US11384055B2 (BIOMARIN PHARMACEUTICAL INC., priority 2017, dated 2022)
